Laboratory results: paper PMC9848257, “Design and synthesis of novel rigid dibenzo[b,f]azepines through ring closure technique as promising anticancer candidates against leukaemia and acting as selective topoisomerase II inhibitors and DNA intercalators” (Journal of Enzyme Inhibition and Medicinal Chemistry, 2023)

Assays:
NCI-H226 = assay: NCI-60 one-dose screen, NCI-H226; format: cell-based; conditions: Homo sapiens; NCI-H226, non-small cell lung cancer; single dose 10 μM; read-out: Growth inhibition %
Method: (§1) Anti-proliferative effects of the counterparts 4a–g and 5a–g were screened against 60 human cancer cell lines, following the Developmental Therapeutics Program protocol, National Cancer Institute[35].
(§2) The anti-tumour activity of the fourteen synthesised congeners was investigated at the NCI against a panel of 60 cancer cell lines (NCI-60 Cell One-Dose Screen). The tested dibenzo[b,f]azepine derivatives were screened at a single dose level (10 μM), Table 1.

SN12C = assay: NCI-60 one-dose screen, SN12C; format: cell-based; conditions: Homo sapiens, renal cancer, single dose 10 μM, read-out: Growth inhibition %
Method: as §1, §2

A549-ATCC = assay: NCI-60 one-dose screen, A549-ATCC; format: cell-based; conditions: Homo sapiens, non-small cell lung cancer, single dose 10 μM, read-out: Growth inhibition %
Method: as §1, §2

MDA-MB-231-ATCC = assay: NCI-60 one-dose screen, MDA-MB-231-ATCC; format: cell-based; conditions: Homo sapiens, breast cancer, single dose 10 μM, read-out: Growth inhibition %
Method: as §1, §2

HCT-116 = assay: NCI-60 one-dose screen, HCT-116; format: cell-based; conditions: Homo sapiens; HCT-116, colon cancer; single dose 10 μM; read-out: Growth inhibition %
Method: as §1, §2

T-47D = assay: NCI-60 one-dose screen, T-47D; format: cell-based; conditions: Homo sapiens, T47D, breast cancer, single dose 10 μM, read-out: Growth inhibition %
Method: as §1, §2

OVCAR-8 = assay: NCI-60 one-dose screen, OVCAR-8; format: cell-based; conditions: Homo sapiens; OVCAR-8, ovarian cancer; single dose 10 μM; read-out: Growth inhibition %
Method: as §1, §2

M14 = assay: NCI-60 one-dose screen, M14; format: cell-based; conditions: Homo sapiens; M14, melanoma; single dose 10 μM; read-out: Growth inhibition %
Method: as §1, §2

COLO 205 = assay: NCI-60 one-dose screen, COLO 205; format: cell-based; conditions: Homo sapiens; COLO 205, colon cancer; single dose 10 μM; read-out: Growth inhibition %
Method: as §1, §2

IGROV1 = assay: NCI-60 one-dose screen, IGROV1; format: cell-based; conditions: Homo sapiens, IGROV-1; IGROV1, ovarian cancer; single dose 10 μM; read-out: Growth inhibition %
Method: as §1, §2

HL-60(TB) = assay: NCI-60 one-dose screen, HL-60(TB); format: cell-based; conditions: Homo sapiens, leukaemia, single dose 10 μM, read-out: Growth inhibition %
Method: as §1, §2

NCI-H23 = assay: NCI-60 one-dose screen, NCI-H23; format: cell-based; conditions: Homo sapiens; NCI-H23, non-small cell lung cancer; single dose 10 μM; read-out: Growth inhibition %
Method: as §1, §2

SK-MEL-2 = assay: NCI-60 one-dose screen, SK-MEL-2; format: cell-based; conditions: Homo sapiens; SK-MEL-2, melanoma; single dose 10 μM; read-out: Growth inhibition %
Method: as §1, §2

CAKI-1 = assay: NCI-60 one-dose screen, CAKI-1; format: cell-based; conditions: Homo sapiens; CAKI-1, renal cancer; single dose 10 μM; read-out: Growth inhibition %
Method: as §1, §2

A498 = assay: NCI-60 one-dose screen, A498; format: cell-based; conditions: Homo sapiens; A498, renal cancer; single dose 10 μM; read-out: Growth inhibition %
Method: as §1, §2

HCC-2998 = assay: NCI-60 one-dose screen, HCC-2998; format: cell-based; conditions: Homo sapiens; HCC-2998, colon cancer; single dose 10 μM; read-out: Growth inhibition %
Method: as §1, §2

NCI-H460 = assay: NCI-60 one-dose screen, NCI-H460; format: cell-based; conditions: Homo sapiens; NCI-H460, non-small cell lung cancer; single dose 10 μM; read-out: Growth inhibition %
Method: as §1, §2

SK-MEL-28 = assay: NCI-60 one-dose screen, SK-MEL-28; format: cell-based; conditions: Homo sapiens; SK-MEL-28, melanoma; single dose 10 μM; read-out: Growth inhibition %
Method: as §1, §2

OVCAR-4 = assay: NCI-60 one-dose screen, OVCAR-4; format: cell-based; conditions: Homo sapiens; OVCAR-4, ovarian cancer; single dose 10 μM; read-out: Growth inhibition %
Method: as §1, §2

SF-539 = assay: NCI-60 one-dose screen, SF-539; format: cell-based; conditions: Homo sapiens; SF-539, CNS cancer; single dose 10 μM; read-out: Growth inhibition %
Method: as §1, §2

MDA-MB-435 = assay: NCI-60 one-dose screen, MDA-MB-435; format: cell-based; conditions: Homo sapiens; MDA-MB-435, melanoma; single dose 10 μM; read-out: Growth inhibition %
Method: as §1, §2

SNB-19 = assay: NCI-60 one-dose screen, SNB-19; format: cell-based; conditions: Homo sapiens; SNB-19, CNS cancer; single dose 10 μM; read-out: Growth inhibition %
Method: as §1, §2

OVCAR-5 = assay: NCI-60 one-dose screen, OVCAR-5; format: cell-based; conditions: Homo sapiens; OVCAR-5, ovarian cancer; single dose 10 μM; read-out: Growth inhibition %
Method: as §1, §2

RXF 393 = assay: NCI-60 one-dose screen, RXF 393; format: cell-based; conditions: Homo sapiens; RXF 393, renal cancer; single dose 10 μM; read-out: Growth inhibition %
Method: as §1, §2

topoisomerase II = assay: Topoisomerase II inhibitory assay; format: biochemical; conditions: in vitro; doxorubicin co-assayed as reference
Method: Therefore, following the procedure reported by Patra et al., the topoisomerase II activity was evaluated.

SMILES | inhibition at 10 µM (NCI-H226) [%] | inhibition at 10 µM (SN12C) [%] | inhibition at 10 µM (A549-ATCC) [%] | inhibition at 10 µM (MDA-MB-231-ATCC) [%] | inhibition at 10 µM (HCT-116) [%] | inhibition at 10 µM (T-47D) [%] | inhibition at 10 µM (OVCAR-8) [%] | inhibition at 10 µM (M14) [%] | inhibition at 10 µM (COLO 205) [%] | inhibition at 10 µM (IGROV1) [%] | inhibition at 10 µM (HL-60(TB)) [%] | inhibition at 10 µM (NCI-H23) [%] | inhibition at 10 µM (SK-MEL-2) [%] | inhibition at 10 µM (CAKI-1) [%] | inhibition at 10 µM (A498) [%] | inhibition at 10 µM (HCC-2998) [%] | inhibition at 10 µM (NCI-H460) [%] | inhibition at 10 µM (SK-MEL-28) [%] | inhibition at 10 µM (OVCAR-4) [%] | inhibition at 10 µM (SF-539) [%] | also measured
O=C(NNC(=O)N1c2ccccc2C=Cc2ccccc21)c1ccc2ccccc2c1 [Compound 4f, N′-(2-Naphthoyl)-5H-dibenzo[b,f]azepine-5-carbohydrazide] | < 10 | < 10 | < 10 | < 10 | < 10 | 12.6 | < 10 | < 10 | < 10 | < 10 | 10 | < 10 | < 10 | < 10 | < 10 | < 10 | < 10 | < 10 | < 10 | < 10 | inhibition at 10 µM (MDA-MB-435): < 10%; inhibition at 10 µM (SNB-19): < 10%; inhibition at 10 µM (OVCAR-5): < 10%; inhibition at 10 µM (RXF 393): < 10%
O=C(Cc1ccccc1)NNC(=O)N1c2ccccc2C=Cc2ccccc21 [Compound 4g, N′-(2-Phenylacetyl)-5H-dibenzo[b,f]azepine-5-carbohydrazide] | < 10 | < 10 | < 10 | < 10 | < 10 | < 10 | < 10 | < 10 | < 10 | < 10 | < 10 | < 10 | < 10 | < 10 | < 10 | < 10 | < 10 | < 10 | < 10 | < 10 | inhibition at 10 µM (MDA-MB-435): < 10%; inhibition at 10 µM (SNB-19): < 10%; inhibition at 10 µM (OVCAR-5): < 10%; inhibition at 10 µM (RXF 393): < 10%
C1=Cc2ccccc2N(c2nnc(-c3ccccc3)o2)c2ccccc21 [Compound 5a, 2-(5 h-Dibenzo[b,f]azepin-5-yl)-5-phenyl-1,3,4-oxadiazole] | < 10 | < 10 | < 10 | < 10 | 54.2 | < 10 | < 10 | 12.1 | < 10 | < 10 | 13.2 | < 10 | < 10 | < 10 | < 10 | 33.4 | < 10 | 28 | < 10 | < 10 | IC50 (topoisomerase II): 15.6 µM; inhibition at 10 µM (MDA-MB-435): < 10%; inhibition at 10 µM (SNB-19): 33.2%; inhibition at 10 µM (OVCAR-5): < 10%; inhibition at 10 µM (RXF 393): < 10%
Brc1ccc(-c2nnc(N3c4ccccc4C=Cc4ccccc43)o2)cc1 [Compound 5b, 2-(4-Bromophenyl)-5-(5H-dibenzo[b,f]azepin-5-yl)-1,3,4-oxadiazole] | 28.3 | 24.2 | 29.8 | 22.3 | 52.2 | 21.5 | 28.6 | < 10 | 15.4 | 21.6 | 34.6 | < 10 | < 10 | 31.9 | 13.4 | < 10 | 63.5 | 14.1 | 19.6 | 17.2 | IC50 (topoisomerase II): 10.2 µM; inhibition at 10 µM (MDA-MB-435): < 10%; inhibition at 10 µM (SNB-19): 15.6%; inhibition at 10 µM (OVCAR-5): < 10%; inhibition at 10 µM (RXF 393): 24.9%
Clc1ccc(-c2nnc(N3c4ccccc4C=Cc4ccccc43)o2)cc1 [Compound 5c, 2-(4-Chlorophenyl)-5-(5H-dibenzo[b,f]azepin-5-yl)-1,3,4-oxadiazole] | 27.5 | 21.9 | 20.3 | 19.8 | 47.7 | < 10 | 24 | < 10 | < 10 | 19.2 | 38.1 | < 10 | < 10 | 28.5 | 12.9 | < 10 | 57.3 | < 10 | 22.1 | < 10 | IC50 (topoisomerase II): 31.8 µM; inhibition at 10 µM (MDA-MB-435): < 10%; inhibition at 10 µM (SNB-19): 11.2%; inhibition at 10 µM (OVCAR-5): < 10%; inhibition at 10 µM (RXF 393): 17.9%
